Test results: publication PMC8198038, “In Vitro Evaluation of Antiproliferative Properties of Novel Organotin(IV) Carboxylate Compounds with Propanoic Acid Derivatives on a Panel of Human Cancer Cell Lines” (Molecules, 2021)

Columns and labels:
[1] = test system: HT-29 (human colorectal adenocarcinoma) cells; experiment: MTT assay, HT-29 cells; type: cell-based; conditions: MTT assay, 48 h incubation; read-out: IC50 (mean ± SD), HT-29, MTT
Description: (§1) The cell proliferations of ligand precursors and organotin(IV) compounds were evaluated with the aid of MTT (3-(4,5-dimethylthiazol-2-yl)-2,5-12 diphenyltetrazolium bromide) and CV (crystal violet) assays toward prostate (PC-3), colon (HT-29), breast (MCF-7) and hepatic (HepG2) cancer cell lines, and normal mouse embryonic fibroblast cells (NIH 3T3). The cells were cultivated in T75 flasks containing 10 mL of complete medium and kept at 37 °C and 5% CO2 […]. The nutrient medium was RPMI-1640 (PAA Laboratories) supplemented with 10% foetal bovine serum, L-glutamine, and penicillin/streptomycin (Sigma). Afterward, 5.000 cells of PC-3 and MCF-7 and 1.500 cells of HT-29 and HepG2 were transferred into 96 well-plates and used for MTT and CV assays. For microscopy investigations as well as FACS measurements (except for ROS/RNS measurements), MCF-7 cells were seeded overnight in 6-well plates (150,000 cells/well) in […] of complete medium. […] In all assays, control cells were untreated MCF-7 cells incubated for the same time period as treated cells and treated with appropriate reagents in various assays. BD FACS Aria III was used for flow cytometry experiments and results were analysed using BD FACSDiva software (BD Biosciences, Heidelberg, Germany) and Cyflogic (V 1.2.1, CyFlo Ltd., Turku, Finland). A fluorescence microscope Invitrogen EVOS FL 2 Auto 2 Cell Imaging System was used for visualization of the cells as well as for detection of fluorescence in the cells.
(§2) Ligands HL1‒HL3, organotin(IV) compounds, and cisplatin were investigated in 9 different concentrations (100, 50, 10, 5, 1, 0.5, 0.1, 0.05, 0.01 μM). Using the complete medium, each stock solution of the test compounds (20 mM in DMSO) was diluted to obtain the working solution. The final concentration of DMSO never overstepped 0.5%, which is non-toxic to the cells. Three technical replicates were performed for each concentration. The treated cells were incubated for 48 h at 37 °C under 5% CO2 and the viability of the cells was determined using MTT and CV assays according to the literature procedure. The IC50 values, defined as 50% inhibitory concentration, were calculated with a four-parameter logistic function and presented in a mean. All experiments were performed in triplicate.

[2] = test system: MCF-7 (breast cancer) cells; experiment: MTT assay, MCF-7 cells; type: cell-based, human; conditions: for IC50: MTT assay, 48 h incubation, read-out: IC50 (mean ± SD), MCF-7, MTT
Description: as §1, §2

[3] = test system: HepG2 (hepatocellular cancer) cells; experiment: MTT assay, HepG2 cells; type: cell-based, human; conditions: MTT assay, 48 h incubation; read-out: IC50 (mean ± SD), HepG2, MTT
Description: as §1, §2

[4] = test system: NIH3T3 (normal mouse embryonic fibroblast) cells; experiment: MTT assay, NIH3T3 cells; type: cell-based; conditions: MTT assay, 48 h incubation, normal cells; read-out: IC50 (mean ± SD), NIH3T3, MTT
Description: as §1, §2

[5] = test system: HT-29 (human colorectal adenocarcinoma) cells; experiment: CV (crystal violet) assay, HT-29 cells; type: cell-based; conditions: CV assay, 48 h incubation; read-out: IC50 (mean ± SD), HT-29, CV
Description: as §1, §2

[6] = test system: MCF-7 (breast cancer) cells; experiment: CV (crystal violet) assay, MCF-7 cells; type: cell-based, human; conditions: for IC50: CV assay, 48 h incubation, read-out: IC50 (mean ± SD), MCF-7, CV
Description: as §1, §2

[7] = test system: MCF-7 cells; experiment: Tin and platinum uptake by ICP-MS; type: cell-based, human; conditions: 24 h, at IC50 (CV assay): cisplatin 15.83 µM, Ph3SnL1 0.218 µM
Description: The cellular uptake features of metal-based cytotoxic drugs strongly impact the underlying anticancer performance. Intracellular tin and platinum uptake in MCF-7 cells has been investigated with the aid of inductively coupled plasma mass spectrometry (ICP-MS) analysis. The treatment of cells with Ph3SnL1 and cisplatin for 24 h in concentrations corresponding to their IC50 values, as obtained by the CV assay, was performed.
The tin and platinum uptake analysis was performed on MCF-7 cells with the aid of inductively coupled plasma mass spectrometry (ICP-MS). The cells were seeded in T25 flasks and allowed to grow. After 24 h, the exponentially growing cells were treated with 10 mL of Ph3SnL1 and cisplatin in concentrations corresponding to their IC50 values for 24 h, and thereafter trypsinised and collected by centrifugation at 1200 rpm for 8 min. Using 5 mL of ice-cold PBS the cells were washed and the metal uptake concentration in prepared samples was determined according to the previously described procedure. A Thermo Scientific iCAP Qc ICP-MS (Thermo Scientific, Bremen, Germany) instrument using the supplied autotune protocols and operational software Qtegra was employed for metal uptake determination. The measurements were performed on isotopes ^119Sn, ^120Sn, ^195Pt, and ^198Pt and the concentrations of metals were expressed as ppb (µg/L).

[8] = test system: MCF-7 cells; experiment: Morphological analysis (AO and DAPI staining); type: cell-based, human; conditions: 24 h, IC50 or 2 × IC50
Description: The morphological changes of MCF-7 cell death induced by Ph3SnL1 and cisplatin were studied by AO (acridine orange) and DAPI (4′,6-diamidino-2-phenylindole) staining, and examined under a fluorescence microscope. Acridine orange can cross the cell membrane and viable and early apoptotic cells can be detected. Chromatin condensation, seen as dense green areas, or membrane blebbing, both appearing in apoptosis, is easily proven by AO staining. After 24 h of treatment (IC50 and 2 × IC50 concentrations) the cells were stained with acridine orange (3 μg/mL AO in PBS), and observed with a fluorescence microscope (Fluorescence microscope-Invitrogen EVOS FL 2 Auto 2 Cell Imaging System). On the other hand, for the DAPI assay 0.5 mL of Triton (0.1% in PBS) was added to the treated cells after the fixing the cells with 0.5 mL of 4% paraformaldehyde (PFA) for 8 min. Thereafter, 0.5 mL of DAPI solution was used to stain the cells for 5 min in the dark. The morphological characteristics were visualized under a fluorescence microscope (Fluorescence microscope-Invitrogen EVOS FL 2 Auto 2 Cell Imaging System).

[9] = test system: MCF-7 cells; experiment: Activation of caspases (apostat, flow cytometry); type: cell-based, human
Text: The activation of caspase is closely linked to cell apoptosis, the controlled cell death, via the mitochondrial pathway or cell death receptor [23, 24]. […] Due to this, it can be concluded that cell death is accomplished through caspase-independent apoptosis. Moreover, as MCF-7 cell line is caspase-3 deficient, this was an anticipated result. Besides, the accomplishment of apoptosis induced with Ph3SnL1 in MCF-7 cells (confirmed with AO and DAPI assays) was not disturbed as this type of cell death may be activated through other death signals not involving caspase activation.
The cells were resuspended in 1 mL of PBS and analysed with flow cytometry.

Row | SMILES | IC50 [1] | IC50 [2] | fold higher activity compared to cisplatin against MCF-7 ([2]; Table 1 IC50 values, 48 h) | IC50 [3] | IC50 [4] | IC50 [5] | times more powerful antiproliferative activity than cisplatin in MCF-7 cells ([6]; CV assay IC50 values) | IC50 [6] | intracellular metal (tin / platinum) uptake [7] | morphological changes (AO and DAPI staining) [8] | mode of cell death [9] | caspase activation (apostat) ([9]; 48 h, IC50 concentration)
1 | O=C(CCc1nc(-c2ccccc2)c(-c2ccccc2)o1)[O][Sn]([c]1ccccc1)([c]1ccccc1)[c]1ccccc1 [Ph3SnL1, (3-(4,5-Diphenyloxazol-2-yl)propanoato)triphenyltin(IV)] | 237 ± 12 nM | 132 ± 21 nM | up to 120 fold | 146 ± 28 nM | 2170 ± 530 nM | 465 ± 46 nM | up to 70 times | 218 ± 25 nM | two-fold lower concentration of tin in MCF-7 cells in comparison to platinum | notable morphological changes | induces caspase-independent apoptosis | did not induce the activation of caspases
2 | N.N.[Cl][Pt][Cl] [cisplatin, reference compound] | 14200 ± 730 nM | 15200 ± 1040 nM |  | 3470 ± 460 nM | 8810 ± 510 nM | 16000 ± 950 nM |  | 15800 ± 550 nM | approximately twofold higher platinum concentration in MCF-7 cells compared to tin |  |  | 
